Laboratory results as given in paper PMC11705955, “Lack of activity of HIV-1 integrase strand-transfer inhibitors on recombinase activating gene (RAG) activity at clinically relevant concentrations” (Microbiology Spectrum, 2024).
Like-named read-outs stand apart in the source and are kept apart here.

What was measured:
[1] = target: T1, recombinant human core RAG1 (AA387-1011)/core RAG2 (AA1-387) in the presence of HMGB1 (Homo sapiens, UniProt P15918+P55895); experiment: Biochemical RAG DNA cleavage assay (gel-based, dsDNA 12RSS/23RSS substrate); conditions: for IC50: 25 nM RAG1-RAG2, 575 nM HMGB1, 10 nM dsDNA, 5 mM MgCl2, 1 h 37°C, no serum; for Inhibitory activity against RAG1/RAG2 cleavage: clinically relevant / supratherapeutic concentrations
T1 construct: made in house; host or cells: RAG1/RAG2 co-expressed in Expi293F GnTI human cells; HMGB1 in E. coli BL21DE3
T1 sequence (P15918 387-1011): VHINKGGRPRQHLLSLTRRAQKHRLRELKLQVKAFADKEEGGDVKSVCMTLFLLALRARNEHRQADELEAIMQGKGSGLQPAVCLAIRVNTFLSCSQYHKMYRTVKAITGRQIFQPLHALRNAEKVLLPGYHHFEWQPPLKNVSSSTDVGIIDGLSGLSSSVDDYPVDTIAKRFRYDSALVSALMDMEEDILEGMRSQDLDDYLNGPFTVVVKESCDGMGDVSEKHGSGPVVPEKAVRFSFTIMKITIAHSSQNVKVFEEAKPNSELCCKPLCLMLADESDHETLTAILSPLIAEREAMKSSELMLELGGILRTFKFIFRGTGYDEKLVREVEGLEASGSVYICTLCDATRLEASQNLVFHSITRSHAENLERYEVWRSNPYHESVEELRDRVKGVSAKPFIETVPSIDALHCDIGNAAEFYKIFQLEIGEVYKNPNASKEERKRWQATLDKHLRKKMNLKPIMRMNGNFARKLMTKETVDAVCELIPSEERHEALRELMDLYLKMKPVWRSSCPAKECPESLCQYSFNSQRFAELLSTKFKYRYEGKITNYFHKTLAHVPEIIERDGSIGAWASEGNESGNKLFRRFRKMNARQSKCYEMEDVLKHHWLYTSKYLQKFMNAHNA
T1 sequence (P55895 1-387): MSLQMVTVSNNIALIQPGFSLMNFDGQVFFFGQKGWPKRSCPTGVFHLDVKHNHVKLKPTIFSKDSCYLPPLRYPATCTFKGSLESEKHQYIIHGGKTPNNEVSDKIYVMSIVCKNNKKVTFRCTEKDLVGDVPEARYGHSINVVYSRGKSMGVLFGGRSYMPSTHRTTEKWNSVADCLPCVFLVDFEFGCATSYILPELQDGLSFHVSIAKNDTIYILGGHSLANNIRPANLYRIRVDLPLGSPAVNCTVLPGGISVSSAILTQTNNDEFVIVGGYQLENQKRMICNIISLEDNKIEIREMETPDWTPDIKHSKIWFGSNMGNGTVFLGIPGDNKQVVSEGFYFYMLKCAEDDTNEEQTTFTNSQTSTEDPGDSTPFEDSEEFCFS
Source text: To directly observe the potential inhibition of RAG1/RAG2, we measured the effect of INSTIs on DNA cleavage by RAG1/RAG2 in the presence of HMGB1. This biochemical system utilizes pre-assembled recombinant human core RAG1 (AA387-1011)/core RAG2 (AA1-387) in the presence of excess truncated HMGB1 (AA1-163) and a linear dsDNA RSS substrate, using gel electrophoresis and a fluorescent dye to monitor cleavage products (Fig. 2A) ([24]). The dsDNA RSS substrate, containing both the 12RSS and 23RSS, was designed to have the different cleavage products resolved via gel electrophoresis. RAG1/RAG2 can singly cleave either the 12RSS or the 23RSS, or both, leading to potentially five different products in the reaction (Fig. 2B). HMGB1 orients RAG1/RAG2 for proper binding to the RSS substrate ([16]). We quantified the activity of RAG as the percentage of substrate conversion to a specific cleaved product, as separated by agarose gel electrophoresis and determined by the DNA-binding fluorescent dye. With the 569-bp substrate, a single cleavage of the 12RSS results in a 492-bp dsDNA and a 77-bp hairpin. Cleavage of the 23RSS alone produces a 433-bp dsDNA and a 136-bp hairpin. Successful cleavage of both RSSs results in a 356-bp dsDNA and both of the 77- and 136-bp hairpins. For the RAG activity analysis, we measured the amount of double cleaved product (356 bp) in relation to the amount of substrate (569 bp) at the end of the reaction. The optimal concentrations of RAG1/RAG2, HMGB1, and MgCl2 were determined through titration (Fig. S2). Because there is no direct RAG1/RAG2 inhibitor previously characterized, we used suramin, a polyanionic compound commonly used as a non-specific inhibitor for DNA/RNA binding or processing proteins as a control for inhibition ([25], [26]).
Prior to the cleavage assay, compounds at the designated concentrations were spotted into 96-well plates using the Tecan Digital D300e (Tecan, Mannedorf, Switzerland). RAG1/RAG2 was incubated with HMGB1 and MgCl2 on ice for at least 15 min in a reaction buffer (25-mM 3-(N-morpholino)propanesulfonic acid [MOPS], pH 7.0, 50-mM KCl, and 2-mM DTT). After the initial incubation, the enzyme solution was added to the compound plates and incubated for an additional 15 min at room temperature. dsDNA substrate in reaction buffer was added to the plates to initiate the reaction. The final conditions of the reaction are 25-nM RAG1–RAG2 complex, 575-nM HMGB1, 10-nM dsDNA substrate, and 5-mM MgCl2. After 1 h at 37°C, reactions were quenched by the addition of final concentrations of 0.19% SDS, 45.5-µg/mL Proteinase K, and 60-mM EDTA.
Glycerol was added to a final concentration of 7.6% in each sample, and samples were loaded onto non-denaturing 6% Tris–borate–EDTA (TBE) gels in 1× TBE buffer. The samples were run at 100 V for 1.5 h, and gels were stained with 1× SYBR Gold in 1× TBE for 20 min. The stained gels were imaged with an Amersham Typhoon Biomolecular Imager.
The gel images were analyzed using ImageQuant software (Cytiva). The densities of the 569-bp-length substrate and fully cleaved 356-bp-length product were quantified. The product density was divided by the sum of substrate and product bands to obtain a percent product value. These calculated values were subtracted from a negative control (pre-quenched reaction where EDTA was added before reaction was initiated) and then normalized to the DMSO-treated control. The normalized data were plotted against concentration using GraphPad Prism (version 9.3; GraphPad Software, San Diego, CA, USA).

[2] = 5-day cytotoxicity assay with Cell Titer Glo readout, GALPC3; type: cell-based; conditions: human
Source text: Supplemental Table S2. CC50 values for INSTIs in 5- day cytotoxicity as says with Cell Titer
Expi293F GALPC3 GALHEP HUH7 MRC5 MT4 PBMC PBMC
Kidney Prostate Hepatoma Hepatoma Lung T-cell line Primary Primary
(embryonic) cancer cell cell line cell line fibroblast cells

[3] = target: recombinant HIV-1 integrase; conditions: read-out: Target IC50 for integrase; cited from earlier work
[4] = cited from earlier work; for Human clinical free Cmax: Cmax corrected for protein binding
RAG1/RAG2 = conditions: cited from earlier work; for Effect on RAG binding or cleavage at the RSS: EVG 50–200 μM, RAL up to 200 µM

SMILES | IC50 [1] [µM] | Inhibitory activity against RAG1/RAG2 cleavage [1] | CC50 at 5 day [2] [µM] | IC50 [3] [µM] | Human clinical free Cmax [4] [nM] | Effect on RAG binding or cleavage at the RSS (RAG1/RAG2) | Cmax ([4]; at clinical dosage of Table 1 (EVG with 150 mg cobicistat)) [nM] | Decrease of DNA binding and cleavage by RAG1 (RAG1/RAG2; DTG 200–500 μM) | CC50 at 5 day ([2]; GALPC3, 5-day, Cell Titer Glo, read-out: CC50) [µM]
O=C(NCc1c(F)cc(F)cc1F)c1cn2c(c(O)c1=O)C(=O)N1[C@H]3CC[C@H](C3)O[C@@H]1C2 [BIC, bictegravir] | > 0.5 | do not show inhibitory activity | > 44.4 | 0.0075 ± 0.0003 | 34 |  |  |  | 
COc1cc2c(cc1Cc1cccc(Cl)c1F)c(=O)c(C(=O)O)cn2[C@H](CO)C(C)C [EVG, elvitegravir] | > 0.5 | do not show inhibitory activity | 20.8 |  | 22 | inhibition of RAG cleavage at the RSS |  |  | 
C[C@@H]1CCO[C@H]2Cn3cc(C(=O)NCc4ccc(F)cc4F)c(=O)c(O)c3C(=O)N12 [DTG, dolutegravir] | > 0.5 |  | > 44.4 |  | 58 |  | 8300 | 50%–75% | 
C[C@H]1CO[C@@H]2Cn3cc(C(=O)NCc4ccc(F)cc4F)c(=O)c(O)c3C(=O)N12 [CAB, cabotegravir] | > 0.5 | do not show inhibitory activity | > 44.4 | 0.003 | 25 |  |  |  | 
Cc1nnc(C(=O)NC(C)(C)c2nc(C(=O)NCc3ccc(F)cc3)c(O)c(=O)n2C)o1 [RAL, raltegravir] | > 10 | do not show inhibitory activity |  |  |  | no effect on binding or cleavage |  |  | > 44.4
O=C(/C=C(\O)c1nnn[nH]1)c1c[nH]c2ccc(Cl)cc12 [p8, 5-CITEP] | 58.2 ± 5.6 |  | > 44.4 |  |  |  |  |  | 
